Test results as given in patent publication US20260294767A1, “USE OF ERGOTHIONEINE IN PROMOTING COLLAGEN GENERATION” (BLOOMAGE BIOTECHNOLOGY CORPORATION LIMITED, priority 2022, published 2026).

Columns and labels:
[1] = tested on: type III collagen generation in human fibroblast (HFF); experiment: Type III collagen content by human collagen III ELISA in human fibroblast (HFF); format: cell-based; settings: 0.2 wt % ergothioneine, 72 hours
Protocol: Human fibroblast (HFF) in logarithmic growth phase were collected, discarding the culture medium, washing them once with PBS, adding 0.25 wt % trypsin, incubating in a cell culture incubator for 1 minute, and then terminating digestion of the culture medium. The culture medium was centrifuged at 1000 rpm for 3 minutes, and the cells were resuspended in complete DMEM medium and counted. Human fibroblast (HFF) were inoculated into 12-well plates at a density of 3×10^5 cells/ml, with 1 ml/well. After incubation in an incubator at 37° C. and 5% CO2 for 24 hours, the culture medium was removed and the cells were washed with PBS.
The cells washed in step 1 were divided into two groups, namely a blank control group and an ergothioneine group, with 3 replicates in each group. Among them, the blank control group: 1 ml of serum-free culture medium; the ergothioneine group: 1 ml of serum-free culture medium containing 0.2 wt % ergothioneine.
After thoroughly mixing, cells in the above groups were placed in an incubator and cultured for another 72 hours.
Phase contrast microscopy was used to observe cell growth, morphology, and integrity of the cell monolayer, and changes in cell morphology and growth were recorded. The content of type III collagen was determined by using the human collagen III ELISA kit.
Type III collagen promotion rate was calculated as: […]

[2] = tested on: type III collagen generation in primary human dermal fibroblasts; experiment: Type III collagen generation in primary human dermal fibroblasts, ELISA of culture supernatant; format: cell-based; settings: for Relative expression level of type III collagen: N=3, vs blank control 100.00%
Protocol: A sample solution was prepared by dissolving ergothioneine solid powder in a basic culture medium, and the concentration was adjusted to 0.001 wt %.
When the in vitro cultured fibroblasts reached 80-90% confluence, they were digested with trypsin and inoculated into 96-well plates. After 48 hours of monolayer culture in a 96-well plate, cells were treated with the ergothioneine sample prepared in step (1) (N=3), with a treatment group comprising 100 ng/mL IGF-1 was set as the positive control. After 48 hours, the cell culture supernatant was taken for ELISA assay of type III collagen, and the type III collagen content of the measured sample group was statistically compared with that of the blank control group to evaluate the effect of ergothioneine on the generation of type III collagen.
All results were presented as Mean±SD, and differences in measured data were compared using an unpaired t-test. P-value<0.05 is considered statistically significant.

Row | Molecule | effect on generation of type III collagen (in words) ([1]; compared with blank control) | activity at 0.2 wt % ([1]; Homo sapiens, Fibroblast, serum-free medium, 3 replicates, vs blank control 100.0 ± 12.3, ** P < 0.01, read-out: Relative expression level of type III collagen (%)) | activation at 0.2 wt % ([1]; Homo sapiens, Fibroblast, serum-free medium, 3 replicates, vs blank control, read-out: Type III collagen promotion rate (%)) | effect on generation of type III collagen (in words) ([2]; ergothioneine 0.001%, 48 hours, P<0.05) | Relative expression level of type III collagen ([2]; ergothioneine 0.001 wt %, 48 hours, SD 0.07, P 0.0360) | effect on synthesis of type III collagen in fibroblasts (in words) ([2]; 100 ng/mL IGF-1, 48 hours, P<0.05) | Relative expression level of type III collagen ([2]; positive control 100 ng/mL IGF-1, 48 hours, SD 0.05, P 0.0103)
1 | C[N+](C)(C)[C@@H](Cc1c[nH]c(=S)[nH]1)C(=O)[O-] [Ergothioneine, ergothioneine] | can significantly promote the generation of type III collagen | 148 ± 20.1% | 48.3 ± 20.1% | significantly promotes the generation of type III collagen | 117.8% |  | 
2 | IGF-1: 100 ng/mL IGF-1 was set as the positive control |  |  |  |  |  | significantly promotes the synthesis of type III collagen in fibroblasts | 129.3%
